Test results published in patent US8765773B2, “Substituted hydroxamic acids and uses thereof” (Millennium Pharmaceuticals, Inc., priority 2010, dated 2014).

Target: T1, purified human HDAC6 (Homo sapiens, UniProt Q9UBN7)
T1 construct: purchased BPS Bioscience 5006
T1 sequence (Q9UBN7 1-1215): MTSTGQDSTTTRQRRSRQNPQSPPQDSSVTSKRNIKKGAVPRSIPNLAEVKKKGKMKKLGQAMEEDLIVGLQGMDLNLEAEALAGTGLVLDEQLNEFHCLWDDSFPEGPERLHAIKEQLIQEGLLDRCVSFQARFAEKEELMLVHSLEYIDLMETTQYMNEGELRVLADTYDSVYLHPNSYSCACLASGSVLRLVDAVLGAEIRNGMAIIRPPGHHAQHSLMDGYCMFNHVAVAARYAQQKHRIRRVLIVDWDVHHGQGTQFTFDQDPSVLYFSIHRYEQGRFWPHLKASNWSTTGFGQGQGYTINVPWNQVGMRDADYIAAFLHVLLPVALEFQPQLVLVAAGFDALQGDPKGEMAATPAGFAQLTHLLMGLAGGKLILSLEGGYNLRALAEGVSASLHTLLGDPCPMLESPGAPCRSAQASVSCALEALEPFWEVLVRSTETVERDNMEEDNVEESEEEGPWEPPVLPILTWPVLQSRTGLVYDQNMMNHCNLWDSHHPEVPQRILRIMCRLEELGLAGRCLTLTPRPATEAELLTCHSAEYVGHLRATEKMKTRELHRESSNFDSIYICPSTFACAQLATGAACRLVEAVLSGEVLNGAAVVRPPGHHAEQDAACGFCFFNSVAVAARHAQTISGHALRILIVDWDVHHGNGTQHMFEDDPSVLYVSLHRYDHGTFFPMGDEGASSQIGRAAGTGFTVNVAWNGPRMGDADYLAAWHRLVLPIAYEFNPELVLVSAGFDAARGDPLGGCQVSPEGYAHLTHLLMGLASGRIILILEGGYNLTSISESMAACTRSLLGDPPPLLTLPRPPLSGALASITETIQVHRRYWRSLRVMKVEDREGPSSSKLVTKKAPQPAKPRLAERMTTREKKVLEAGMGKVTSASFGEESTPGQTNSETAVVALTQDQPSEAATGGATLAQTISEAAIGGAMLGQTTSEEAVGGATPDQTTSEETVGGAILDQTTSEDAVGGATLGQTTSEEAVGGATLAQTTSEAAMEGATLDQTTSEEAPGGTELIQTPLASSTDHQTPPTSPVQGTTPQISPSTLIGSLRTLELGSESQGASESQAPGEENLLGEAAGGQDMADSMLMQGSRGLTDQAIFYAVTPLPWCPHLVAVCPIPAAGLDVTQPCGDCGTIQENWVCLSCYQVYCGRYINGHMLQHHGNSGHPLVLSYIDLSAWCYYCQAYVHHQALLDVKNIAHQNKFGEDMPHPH
Test: HDAC6 Enzyme Assay
Type: biochemical
Details: read-out: Percent Inhibition; for inhibition at 0.412 µM: compound concentration 0.412 μM; for inhibition at 0.37 µM: compound concentration 0.37 μM
Method: To measure the inhibition of HDAC6 activity, purified human HDAC6 (BPS Bioscience; Cat. No. 5006) is incubated with substrate Ac-Arg-Gly-Lys(Ac)-AMC peptide (Bachem Biosciences; Cat. No. I-1925) for 1 hour at 30° C. in the presence of test compounds or vehicle DMSO control. The reaction is stopped with the HDAC inhibitor trichostatin A (Sigma; Cat. No. T8552) and the amount of Arg-Gly-Lys-AMC generated is quantitated by digestion with trypsin (Sigma; Cat. No. T1426) and subsequent measurement of the amount of AMC released using a fluorescent plate reader (Pherastar; BMG Technologies) set at Ex 340 nm and Em 460 nm. Concentration response curves are generated by calculating the fluorescence increase in test compound-treated samples relative to DMSO-treated controls, and percentage inhibition values at a single concentration or enzyme inhibition (IC50) values are determined from those curves. One skilled in the art will appreciate that the values generated either as percentage inhibition at a single concentration or IC50 values are subject to experimental variation.

Compound | inhibition at 0.412 µM [%] | inhibition at 0.37 µM [%]
O=C(NO)c1ccc2ccn(Cc3ccc(Cl)c(Cl)c3)c(=O)c2c1 [Compound I-1, 2-(3,4-dichlorobenzyl)-N-hydroxy-1-oxo-1,2-dihydroisoquinoline-7-carboxamide] | 95.9 | 
O=C(NO)c1ccc2ccn(CC3CCNCC3)c(=O)c2c1 [Compound I-2, N-hydroxy-1-oxo-2-(piperidin-4-ylmethyl)-1,2-dihydroisoquinoline-7-carboxamide] | 82.2 | 
COc1ccc(OCCCn2ccc3ccc(C(=O)NO)cc3c2=O)cc1 [Compound I-3, N-hydroxy-2-[3-(4-methoxyphenoxy)propyl]-1-oxo-1,2-dihydroisoquinoline-7-carboxamide] | 95.8 | 
O=C(NO)c1ccc2ncn(C(c3ccccc3)c3ccccc3)c(=O)c2c1 [Compound I-4, 3-(diphenylmethyl)-N-hydroxy-4-oxo-3,4-dihydroquinazoline-6-carboxamide] | 79.6 | 
O=C(NO)c1ccc2ccn(Cc3ccc4ccccc4c3)c(=O)c2c1 [Compound I-5, N-hydroxy-2-(2-naphthylmethyl)-1-oxo-1,2-dihydroisoquinoline-7-carboxamide] | 96.5 | 
O=C(NO)c1ccc2c(=O)n(CCc3ccccn3)c(C3CCCCC3)nc2c1 [Compound I-6, 2-cyclohexyl-N-hydroxy-4-oxo-3-(2-pyridin-2-ylethyl)-3,4-dihydroquinazoline-7-carboxamide] | 77.7 | 
O=C(NO)c1ccc2ccn(Cc3c(Cl)cccc3Cl)c(=O)c2c1 [Compound I-7, 2-(2,6-dichlorobenzyl)-N-hydroxy-1-oxo-1,2-dihydroisoquinoline-7-carboxamide] | 94.9 | 
CC(C)(C)C(=O)NCCCn1ccc2ccc(C(=O)NO)cc2c1=O [Compound I-8, 2-{3-[(2,2-dimethylpropanoyl)amino]propyl}-N-hydroxy-1-oxo-1,2-dihydroisoquinoline-7-carboxamide] |  | 91.7
CC(C)n1c(-c2ccccc2)nc2cc(C(=O)NO)ccc2c1=O [Compound I-9, N-hydroxy-3-isopropyl-4-oxo-2-phenyl-3,4-dihydroquinazoline-7-carboxamide] | 85 | 
Cc1ccn(CCn2ccc3ccc(C(=O)NO)cc3c2=O)n1 [Compound I-10, N-hydroxy-2-[2-(3-methyl-1H-pyrazol-1-yl)ethyl]-1-oxo-1,2-dihydroisoquinoline-7-carboxamide] | 84.5 | 
O=C(NO)c1ccc2ccn(CCCc3ccccc3)c(=O)c2c1 [Compound I-11, N-hydroxy-1-oxo-2-(3-phenylpropyl)-1,2-dihydroisoquinoline-7-carboxamide] | 97 | 
CC(c1ccccc1)n1cnc2ccc(C(=O)NO)cc2c1=O (centres unmarked) [Compound I-12, N-hydroxy-4-oxo-3-(1-phenylethyl)-3,4-dihydroquinazoline-6-carboxamide] |  | 99.2
CCn1nccc1-c1nc2cc(C(=O)NO)ccc2c(=O)n1Cc1ccc(C(F)(F)F)cc1 [Compound I-13, 2-(1-ethyl-1H-pyrazol-5-yl)-N-hydroxy-4-oxo-3-[4-(trifluoromethyl)benzyl]-3,4-dihydroquinazoline-7-carboxamide] |  | 82.1
O=C(NO)c1ccc2ccn(Cc3cccc(OC(F)(F)F)c3)c(=O)c2c1 [Compound I-14, N-hydroxy-1-oxo-2-[3-(trifluoromethoxy)benzyl]-1,2-dihydroisoquinoline-7-carboxamide] | 95.1 | 
CC(C)Nc1nc2cc(C(=O)NO)ccc2c(=O)n1C [Compound I-15, N-hydroxy-2-(isopropylamino)-3-methyl-4-oxo-3,4-dihydroquinazoline-7-carboxamide] | 32.7 | 
O=C(NO)c1ccc2c(=O)n(Cc3cccc(C(F)(F)F)c3)cnc2c1 [Compound I-16, N-hydroxy-4-oxo-3-[3-(trifluoromethyl)benzyl]-3,4-dihydroquinazoline-7-carboxamide] | 95.8 | 
CC(C)(C)c1cccc(OCc2nc3cc(C(=O)NO)ccc3c(=O)[nH]2)c1 [Compound I-17, 2-[(3-tert-butylphenoxy)methyl]-N-hydroxy-4-oxo-3,4-dihydroquinazoline-7-carboxamide] | 30.6 | 

Results, then the molecule that gave them:

inhibition at 0.412 µM [%] | inhibition at 0.37 µM [%] | Compound
68.9 |  | Cc1nc2cc(C(=O)NO)ccc2c(=O)[nH]1 [Compound I-18, N-hydroxy-2-methyl-4-oxo-3,4-dihydroquinazoline-7-carboxamide]
94.4 |  | O=C(NO)c1ccc2ccn(C(c3ccccc3)c3ccccc3)c(=O)c2c1 [Compound I-19, 2-(diphenylmethyl)-N-hydroxy-1-oxo-1,2-dihydroisoquinoline-7-carboxamide]
83 |  | O=C(NO)c1ccc2ccn(CCCOc3cccc(OCc4ccccc4)c3)c(=O)c2c1 [Compound I-20, 2-{3-[3-(benzyloxy)phenoxy]propyl}-N-hydroxy-1-oxo-1,2-dihydroisoquinoline-7-carboxamide]
96.1 |  | O=C(NO)c1ccc2ccn(CCCOc3cccc4c3CCC4)c(=O)c2c1 [Compound I-21, 2-[3-(2,3-dihydro-1H-inden-4-yloxy)propyl]-N-hydroxy-1-oxo-1,2-dihydroisoquinoline-7-carboxamide]
96.4 |  | O=C(NO)c1ccc2c(=O)n(CCOc3ccccc3)cnc2c1 [Compound I-22, N-hydroxy-4-oxo-3-(2-phenoxyethyl)-3,4-dihydroquinazoline-7-carboxamide]
 | 92.2 | O=C(NO)c1ccc2ncn(Cc3cccc(-c4c(Cl)cccc4Cl)c3)c(=O)c2c1 [Compound I-23, 3-[(2′,6′-dichlorobiphenyl-3-yl)methyl]-N-hydroxy-4-oxo-3,4-dihydroquinazoline-6-carboxamide]
93.7 |  | O=C(NO)c1ccc2ccn(Cc3cccc(F)c3F)c(=O)c2c1 [Compound I-24, 2-(2,3-difluorobenzyl)-N-hydroxy-1-oxo-1,2-dihydroisoquinoline-7-carboxamide]
84.7 |  | O=C(NO)c1ccc2ncn(CC3CC3)c(=O)c2c1 [Compound I-25, 3-(cyclopropylmethyl)-N-hydroxy-4-oxo-3,4-dihydroquinazoline-6-carboxamide]
 | 92.3 | O=C(NO)c1ccc2c(=O)n(Cc3ccc(C(F)(F)F)cc3)c(-c3cccc4cccnc34)nc2c1 [Compound I-26, N-hydroxy-4-oxo-2-quinolin-8-yl-3-[4-(trifluoromethyl)benzyl]-3,4-dihydroquinazoline-7-carboxamide]
98.6 |  | Cc1nc(-c2ccccc2OCCn2ccc3ccc(C(=O)NO)cc3c2=O)cs1 [Compound I-27, N-hydroxy-2-{2-[2-(2-methyl-1,3-thiazol-4-yl)phenoxy]ethyl}-1-oxo-1,2-dihydroisoquinoline-7-carboxamide]
 | 85.5 | O=C(NO)c1ccc2ncn(Cc3cccc(-c4ccccc4Cl)c3)c(=O)c2c1 [Compound I-28, 3-[(2′-chlorobiphenyl-3-yl)methyl]-N-hydroxy-4-oxo-3,4-dihydroquinazoline-6-carboxamide]
78.9 |  | Cc1ccccc1OCc1nc2cc(C(=O)NO)ccc2c(=O)[nH]1 [Compound I-29, N-hydroxy-2-[(2-methylphenoxy)methyl]-4-oxo-3,4-dihydroquinazoline-7-carboxamide]
